Measurements reported in patent US5910482A (priority 1996, dated 1999).

Columns and labels:
[1] = test system: pregnant rats; assay: Effects of L-NAME infusion on systolic blood pressure in pregnant rats; format: in vivo, rat; conditions: n = 5
Description: The effects of hypertensive agent L-NAME (50 mg/rat) on blood pressure were studied. […] L-NAME was infused as described in the FIG. 2.

[2] = test system: pregnant rats; assay: Delivery day and pup survival after L-NAME infusion to pregnant rats; effect of CGRP on fetal survival; format: in vivo; conditions: L-NAME 50/mg/day infusion to pregnant rats; 5 animals

COC(=O)[C@@H](N)CCCNC(=N)N[N+](=O)[O-] [L-NAME, N^G -nitro-L-arginine methyl ester]
Systolic Blood Pressure ([1]; Gestational Day 17 (before infusion start on day 18), L-NAME 50 mg/day): 116 ± 3 mm Hg | Systolic Blood Pressure ([1]; Gestational Day 18, L-NAME 50 mg/day infused from day 18): 137 ± 6 mm Hg | Systolic Blood Pressure ([1]; Gestational Day 19, L-NAME 50 mg/day infused from day 18): 154 ± 3 mm Hg | Systolic Blood Pressure ([1]; Gestational Day 22, L-NAME 50 mg/day infused from day 18): 137 ± 8 mm Hg | Systolic Blood Pressure ([1]; Postpartum PP Day 1, L-NAME 50 mg/day): 145 ± 5 mm Hg | Systolic Blood Pressure ([1]; Postpartum PP Day 2, L-NAME 50 mg/day): 140 ± 5 mm Hg | # of dead pups [2]: 10 | Weight of pups [2]: 5.14 ± 0.07 g
